Laboratory results as given in patent US7205298B2, “Substituted triazine kinase inhibitors” (Janssen Pharmaceutica N.V., priority 2002, dated 2007).

Tests used:
[1] = test system: HeLa cervical adenocarcinoma; experiment: Inhibition of cell proliferation, 14C-thymidine incorporation, HeLa; assay type: cell-based; settings: Homo sapiens
Experimental: (§1) The ability of a test compound to inhibit the proliferation of cell growth was determined by measuring incorporation of ^14C-labelled thymidine into newly synthesized DNA within the cells. This method was used on cell lines derived from carcinomas originating from several tissues such as HeLa cervical adenocarcinoma (American Type Culture Collection (ATCC), Virginia, Cat. #CCL-2), HCT-116 colon carcinoma (CCL-247), MDA-MB-231 (Xenogen Corp.), PC-3 prostate adenocarcinoma (ATCC CRL-1435) and A375 malignant melanoma (ATCC CRL-1619).
(§2) Using this method, the effect of a compound on cell growth of cells with many different phenotypes can be determined. Cells were trypsinized and counted and 3000–8000 cells were added to each well of a 96-well CytoStar tissue culture treated scintillating microplate (Amersham #RPNQ0160) in complete medium in a volume of 100 μl. Cells were incubated for 24 hours in complete medium at 37° C. in an atmosphere containing 5% CO2. 1 μL of test compound in 100% DMSO was then added to the wells of the plate. DMSO only was added to control wells. Cells were incubated for 24 more hours in complete medium at 37° C. in an atmosphere containing 5% CO2. […] The degree of methyl ^14C-thymidine incorporation was quantified on a Packard Top Count.

Protein Kinase A = target: T1, Protein Kinase A (Bos taurus, UniProt P00517); experiment: Kinase selectivity assay Protein Kinase A; assay type: biochemical, bovine
T1 construct: purified from bovine heart; purchased Upstate Biotech 14-114; host or cells: bovine heart (tissue)
Experimental: (§3) Assays to test compound inhibition of other kinases were preformed using methods that measure the amount of phosphorylation of a biotinylated peptide substrate. Biotinylated peptide substrates were selected from the literature as appropriate for the enzyme being evaluated. The general procedure used to assay for kinase activity is as follows: a kinase reaction mix was prepared in 50 mM Tris-HCl pH=8, 10 mM MgCl2, 0.1 mM Na3VO4, 1 mM DTT, 10 μM ATP, 0.25–1 μM biotinylated peptide substrate, 0.2–0.8 μCuries per well ^33P-γ-ATP (2000–3000 Ci/mmol). Assay conditions vary slightly for each protein kinase, for example, insulin receptor kinase requires 10 mM MnCl2 for activity and Calmodulin-dependent protein kinase requires calmodulin and 2 mM CaCl2. The reaction mixture was dispensed into the wells of a streptavidin coated Flashplate and 1 μL test compound in 100% DMSO was added to a 100 μL reaction volume resulting in a final concentration of 1% DMSO in the reaction. Enzyme was diluted in 50 mM Tris-HCl pH=8.0, 0.1% BSA and added to each well. The reaction was incubated for one hour at 30° C. in the presence of a test compound. […] The plate was read on a scintillation counter to determine ^33P-γ-ATP incorporated into the immobilized peptide substrate. […] A maximum and minimum signal for the assay was determined on each plate. […]

HCT-116 colon carcinoma = experiment: Inhibition of cell proliferation, 14C-thymidine incorporation, HCT-116; assay type: cell-based; settings: Homo sapiens
Experimental: as §1, §2

[2] = target: T2, Calmodulin Kinase (calmodulin-dependent protein kinase 2) (Rattus norvegicus, UniProt P11275); experiment: Kinase selectivity assay Calmodulin Kinase; assay type: biochemical
T2 construct: purchased New England Biolabs 6060; host or cells: insect cells
Experimental: as §3

| Structure (SMILES) | IC50 [1] [nM] | IC50 (Protein Kinase A) [nM] | IC50 (HCT-116 colon carcinoma) [nM] | IC50 [2] [nM] |
| --- | --- | --- | --- | --- |
| OCCCNc1cncc(-c2ncnc(Nc3cccc(Cl)c3)n2)c1 [Compound 1, 3-((5-(4-((3-chlorophenyl)amino)-1,3,5-triazin-2-yl)-3-pyridinyl)amino)-1-propanol] | 298 | > 100000 | 278 | 54200 |
| OCCCNc1cc(-c2ncnc(Nc3cccc(Cl)c3)n2)ccn1 [Compound 2, 3-((4-(4-((3-chlorophenyl)amino)-1,3,5-triazin-2-yl)-2-pyridinyl)amino)-1-propanol] | 105 | > 100000 | 48 | > 10000 |
